pKd: −log10 of the molar value. *1 amine or outer side, *2 acyl side, *3 side chain or, on linkers, in order; H or OH if unused. Where a SMILES comes first, the peptide text is derived from it. Bridges are numbered along the chain shown (N, C = ends). [ ]: non-standard residue; d: D form. The star is where a group is joined. DOTA = O=C(O)CN1CCN(CC(=O)O)CCN(CC(=O)*)CCN(CC(=O)O)CC1; γGlu = O=C(O)[C@H](CCC(=O)[*:2])N[*:1]; Ahx = NCCCCCC(=O)O

For one data set, the system named is SHP-77 tumors. The data set is described as follows: Ex vivo biodistribution of radiolabeled peptides in nude mice bearing SHP-77 tumors. The following applies: [^177Lu]Lu labelling; nude mice bearing SHP-77 tumors (n = 3); 24 hours post-injection; intravenous. As for the experimental part:
[^177Lu]LuCl3 was received from venders in HCl solution. For every mCi of [^177Lu]LuCl3 added to the reaction vial (1.5 mL Eppendorf vial), ammonium acetate buffer (0.2 M, pH 4.9, 100 μL, containing 1% w/v ascorbic acid and 6% v/v ethanol) and peptide conjugate (1 nmol also referred to herein as “chelator-peptides”) was added. A peptide conjugate of the present disclosure is also referred to herein as a “chelator-peptide”. The pH of the solution was determined to be approximately 5 by using pH strips. The reaction vial was incubated at 80° C., 700 RPM for 17-20 minutes. A sample from the reaction was analyzed by RP-HPLC using an Agilent Infinity II 1260 HPLC to determine reaction completion and radiochemical purity of [^177Lu]Lu-chelator-peptide. HPLC conditions: Waters XBridge BEH C18 Column, 130 A, 3.5 um, 4.6 mm×250 mm; mobile phase: Solvent A=water (with 0.1% formic acid), solvent B=acetonitrile (with 0.1% formic acid). Gradients: 25-45% B in 10 minutes, 45-65% B in 12 minutes, 65-90% in 6 minutes at a flow rate of 0.5 mL/min. Required amounts of the product was formulated in 1% PBSA for cell studies.
Mice were intravenously injected (via the lateral tail vein) with a bolus dose of the radiolabeled peptides for ex vivo biodistribution studies when tumor volumes were in range of 200-400 mm^3 for xenograft mice and when age of the mice was 5-7 weeks for tumor naïve mice studies. To assess the amount of radionuclide injected into individual mice the syringe was assayed in a dose calibrator before and after injection for [^177Lu]Lu-peptide.
Mice were euthanized at pre-determined time points and selected tissues were resected and collected into pre-weighed tubes. The tubes were then reweighed post resection, the difference giving the weight of each tissue. Radioactivity in each tissue was measured using a gamma counter. Counts were decay corrected to the time of injection and percentage of injected activity per gram (% IA/g) was calculated for each tissue based on the injected activity into each individual mouse. Injected activity was converted to counts based on the sensitivity of the gamma counter. The counts in tissue were then converted to the percentage of injected activity and this was divided by the mass of tissue to give % IA/g.

Another data set concerns the target T1, human DLL3 (Homo sapiens, UniProt Q9NYJ7).
T1 construct: biotin (biotinylated)
T1 sequence (Q9NYJ7 27-618): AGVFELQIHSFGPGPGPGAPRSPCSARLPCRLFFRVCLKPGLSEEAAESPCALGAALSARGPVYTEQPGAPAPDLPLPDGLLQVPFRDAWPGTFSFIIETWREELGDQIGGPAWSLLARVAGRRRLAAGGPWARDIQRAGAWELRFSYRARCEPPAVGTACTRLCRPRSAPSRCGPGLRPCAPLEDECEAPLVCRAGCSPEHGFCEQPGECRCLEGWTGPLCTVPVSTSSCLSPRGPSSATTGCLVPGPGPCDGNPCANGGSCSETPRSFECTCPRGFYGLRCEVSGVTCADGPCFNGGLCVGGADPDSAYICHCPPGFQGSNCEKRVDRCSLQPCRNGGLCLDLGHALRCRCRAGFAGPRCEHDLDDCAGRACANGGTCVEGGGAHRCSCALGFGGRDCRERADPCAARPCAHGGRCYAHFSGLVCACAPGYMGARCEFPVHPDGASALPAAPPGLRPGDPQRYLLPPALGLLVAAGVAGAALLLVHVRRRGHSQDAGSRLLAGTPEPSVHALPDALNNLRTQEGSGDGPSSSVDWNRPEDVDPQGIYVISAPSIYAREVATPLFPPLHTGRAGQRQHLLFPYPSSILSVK
The experiment in a line: Affinity determination by Surface Plasmon Resonance (SPR), biotinylated human DLL3 immobilized on streptavidin sensor chip. The note with it: 25° C., Biacore, 1:1 binding model. The method, then: Affinity Determination by Surface Plasmon Resonance (SPR). SPR studies were performed on the compounds disclosed herein using the following protocol.
The binding affinity and binding kinetic parameters at 25° C. were determined using Biacore S200 or biacore 8K instrument. Biotinylated target ligand human DLL3 was immobilized on a streptavidin sensor chip. A reference surface was set up for nonspecific binding and refractive index changes. For analysis of the kinetics of interactions, varying concentrations of samples were injected at a flow rate of 100 μL/min using running buffer containing 20 mM phosphate buffer with 2.7 mM KCl, 137 mM NaCl, 0.05% Surfactant P20 and 2% DMSO. Sensorgram curves were fitted with 1:1 binding model, and affinity and kinetic parameters were obtained using Biacore Insight evaluation 4.0. software.

On to `CC[C@H](C)[C@H](NC(=O)[C@@H](NC(=O)[C@H](Cc1c[nH]c2ccccc12)NC(=O)CC[C@H](NC(=O)CC[C@H](NC(=O)CC[C@H](NC(=O)CN1CCN(CC(=O)O)CCN(CC(=O)O)CCN(CC(=O)O)CC1)C(=O)O)C(=O)O)C(=O)O)[C@@H](C)O)C(=O)N[C@H]1CSSC[C@@H](C(=O)N[C@@H](Cc2c[nH]c3ccccc23)C(=O)N2CCC[C@H]2C(N)=O)NC(=O)[C@H](CC(=O)O)NC(=O)[C@H](Cc2c[nH]cn2)NC(=O)[C@H](Cc2c[nH]c3ccccc23)NC(=O)[C@H](CC(N)=O)NC(=O)[C@H](CC(N)=O)NC1=O` [compound 82, DOTA-(gE)3-W-T-I-C(3)-N-N-W-H-D-C(3)-W-P-CONH2] ({DOTA-γGlu-γGlu-γGlu}-WTICNNWHDCWP-NH2; disulfide 4-10), for which, in the data set with SHP-77 tumors, the “kidney uptake (% IA/g)” value is on record as “D (% IA/g > 10 in kidney)” and the “tumor uptake (% IA/g)” value is given as “A (0 < % IA/g ≤ 5 in tumor)”.

Take `CC[C@H](C)[C@H](NC(=O)[C@@H](NC(=O)[C@H](Cc1c[nH]c2ccccc12)NC(=O)CCCCCNC(=O)CN1CCN(CC(=O)O)CCN(CC(=O)O)CCN(CC(=O)O)CC1)[C@@H](C)O)C(=O)N[C@H]1CSSC[C@@H](C(=O)N[C@@H](Cc2c[nH]c3ccccc23)C(=O)N2CCC[C@@H]2C(N)=O)NC(=O)[C@H](CC(=O)O)NC(=O)[C@H](Cc2cnc[nH]2)NC(=O)[C@H](Cc2c[nH]c3ccccc23)NC(=O)[C@H](CC(N)=O)NC(=O)[C@H](CC(N)=O)NC1=O` [compound 18, DOTA-Ahx-W-T-I-C(3)-N-N-W-H-D-C(3)-W-P-CONH2] ({DOTA-Ahx}-WTICNNWHDCW[dP]-NH2; disulfide 4-10): the pKd at human DLL3 was 8.00 to 9.00. For the same compound, in the data set with SHP-77 tumors, the “kidney uptake (% IA/g)” value is “D (% IA/g > 10 in kidney)” and the “tumor uptake (% IA/g)” value was “A (0 < % IA/g ≤ 5 in tumor)”.

A word on the pKd: it is −log10 of the Kd, conventionally taken in molar units. A high value points to a small Kd.

Values taken from patent publication US20250034210A1, “DLL3 TARGETING PEPTIDES AND CONSTRUCTS THEREOF” (MARIANA ONCOLOGY INC., priority 2023, published 2025).
